System: B16 cells
Assay: Sugar chain extension reaction in B16 cells with saccharide primer (HPTLC, densitometer)
Type: cell-based, mouse
Details: for extended sugar chain product detected by HPTLC: B16 cells 2.0×10^6 cells/plate, 48 hours, medium fraction and cell fraction, resorcinol staining
Protocol: When a saccharide primer is administered to the sugar chain-synthesizing cell described above, this cell reacts with the saccharide primer, and as a result, a desired sugar chain can be obtained. Specifically, a saccharide primer is administered at a concentration of 50 μM to a medium in which sugar chain-synthesizing cells (for example, B16 cells) are cultured, and the mixture is incubated at 37° C. for about 2 days. During that period, the saccharide primer is introduced into the cells, a sugar is added to the saccharide primer, and various types of sugar chains are produced in the culture liquid. The sugar chains are recovered from the culture liquid by a method known to a person skilled in the art, for example, a lectin column or a commercially available sugar chain purification kit.
First, the saccharide primer Lac-C12 and the saccharide primer Lac-C13:1(2) were added to each medium in which B16 cells (mouse melanoma cells strongly expressing GM3) (Japan Health Science Foundation, Health Science Research Resources Bank) were plated at a concentration of 2.0×10^6 cells/plate, and then incubated for 48 hours. Then, the medium and the cells were separated by centrifugation, and each of collected substances was analyzed with HPTLC.
With regard to the saccharide primer Lac-C12 and the saccharide primer Lac-C13:1(2), their sugar chain extension efficiencies in B16 cells and amounts of the saccharide primers taken into the cells were compared by a quantitative analysis with a densitometer.

Row | SMILES | extended sugar chain product detected by HPTLC | sugar chain extension efficiency (amounts of extended sugar chain products) (B16 cells, medium fraction, 48 hours incubation, densitometer quantitation, compared with Lac-C12, listed as Lac-O-C13:1(2))
1 | CCCCCCCCCCCCO[C@@H]1OC(CO)[C@@H](O[C@@H]2OC(CO)[C@H](O)[C@H](O)C2O)[C@H](O)C1O (stereo partly drawn) [Lac-C12, reference compound] | a product X′ was confirmed in both the medium fraction and the cell fraction | –
2 | CCCCCCCCCC/C=C/CO[C@@H]1OC(CO)[C@@H](O[C@@H]2OC(CO)[C@H](O)C(O)C2O)C(O)C1O (stereo partly drawn) [Lac-C13:1(2), 1-O-(trans-2-tridecenyl)-4-O-(β-D-galactopyranosyl)-β-D-glucopyranoside] | a product X was confirmed in both the medium fraction and the cell fraction | equal to or greater than those obtained by using a conventional primer

— patent US20110111986A1, “NOVEL SACCHARIDE PRIMER AND USE THEREOF” (KEIO UNIVERSITY, priority 2007, published 2011)
